3 molecules from patent US8669088B2, “Enzyme associated with equol synthesis” (Otsuka Pharmaceutical Co., Ltd., priority 2007, dated 2014) can be followed below.

SMILES strings stand for the structures.

The test system of one assay is daidzein. The assay is described as follows: Dihydrodaidzein biosynthesis activity in centrifuged supernatant of disrupted cell material and coenzyme dependency (Example A1). Type of assay: biochemical, Lactococcus 20-92 strain. The note with it: supernatant of disrupted cells; 37° C., 2 hour; HPLC (FIG. 1). As for the experimental part: The frozen cells (67 mL bottle×2) were thawed, and centrifuged at 4° C. at 8,000 rpm for 10 minutes. The pellet was used in the test below. First, the pellet was suspended in 2 ml of a 0.1 M phosphate-potassium solution containing 1 mM PMSF (Wako Pure Chemical Industries, Ltd.), 2 mM DTT (Wako Pure Chemical Industries, Ltd.) and 5 mM sodium hydrosulfite (Wako Pure Chemical Industries, Ltd.). The suspension was supplied to two 2 ml tubes with screw caps (Assist) and pre-supplemented with […] zirconia/silica beads (BioSpec Products, Inc.). The cells were disrupted using FastPrep® FP100A (Thermo ELECTRON CORPORATION) (6500 rpm, 10 seconds, ice cooling×8). The resulting liquid was centrifuged to obtain supernatant. The suspension of disrupted cell was centrifuged at about 10,000 rpm at 4° C. for 10 minutes to obtain a supernatant, which was then diluted to 4.5 mL with 0.1 M potassium phosphate solution containing 1 mM PMSF, 2 mM DTT and 5 mM sodium hydrosulfite. This was used as an enzyme source.
An enzyme reaction mixture of the composition below was prepared, and the mixture was incubated at 37° C. for 2 hour. After incubation, 3 mL of ethyl acetate was added to the enzyme reaction mixture for extraction. After drying, the extract was dissolved by the mobile phase (eluent). The dissolved product was analyzed by HPLC. […]

The test system of a further assay is dihydrodaidzein. The assay is described as follows: Tetrahydrodaidzein biosynthesis activity in centrifuged supernatant of disrupted cell material and NADH or NADPH dependency (Example B2). Format: biochemical, Lactococcus 20-92 strain. The following applies: centrifuged supernatant of disrupted cells; 37° C., 2 hours; HPLC (FIG. 11). The procedure: The frozen cells were thawed and centrifuged at 4° C. for 15 minutes (5,000×G). The pellet was used in the test below. First, the pellet (wet weight 2.7 g) was suspended in 10 ml of a 0.1 M phosphate-potassium solution containing 1 mM PMSF and 5 mM sodium hydrosulfite. After preheating at 37° C. for 5 minutes, lysozyme was added in an amount of 100 mg per gram of the pellet (wet weight) to cause a reaction at 37° C. for 1.5 hours. Then, an equivalent amount of 0.1 M dipotassium phosphate solution was added to the reaction mixture, and the mixture was vigorously agitated with a vortex mixer after adding zirconia-silica beads (3 ml). The cells were then disrupted with a sonicator (Branson Sonifier Cell Disruptor 200) (3 cycles of a 5-minute sonication and a 2-minute rest). The disrupted cell suspension was centrifuged at about 10,000×G for 15 minutes to obtain a supernatant, which was then used as an enzyme source. An enzyme reaction mixture of the composition below was prepared, and was incubated at 37° C. for 2 hours. After incubation, 5 mL of ethyl acetate was added to the enzyme reaction product for extraction. Then, the product was dried to prepare a sample for HPLC analysis. [table]

Assay [1] has as its system disrupted cell material of Lactococcus 20-92 strain. The assay is described as follows: Enzyme reaction with disrupted cell material of Lactococcus 20-92 strain as enzyme source (Example B1). The note with it: 10 μg/mL substrate; 2 mM NADPH, 2 mM NADH; 37° C., 2 hours; HPLC (FIG. 10). Type of assay: biochemical. As for the experimental part:
The Lactococcus 20-92 strain cells preserved at −80° C. were quickly thawed. The cells were suspended by tapping, and centrifuged at 4° C. (8,000 rpm×5 min) using a centrifuge VC-960 (Taitec). After removing the supernatant, 0.1 M potassium phosphate buffer/1 mM PMSF (phenylmethanesulfonyl fluoride)/2 mM DTT (dithiothreitol)/5 mM sodium hydrosulfite (pH 7.0) were added to obtain a cell suspension. The cell suspension was placed in a 2 ml tube prepared to include zirconia-silica beads (about 0.8 mL, 0.1 mm, 1 lb; Wakenyaku Co., Ltd.), and the tube was charged with 0.1 M potassium phosphate solution/1 mM PMSF/2 mM DTT/5 mM sodium hydrosulfite (pH 7.0) to fill the tube almost completely. For disruption, the tube was closed and kept on ice, where a cycle of 6,500 rpm×20 sec centrifugation and ice-cooling was repeated four times using FastPrep®-FP100A (Thermo Electron Corporation). The resulting disrupted cell material was used as an enzyme source in an enzyme reaction.
A 1 mL enzyme reaction mixture of the composition below, containing 0.1 ml of the disrupted cell material obtained in (1) was prepared, and the mixture was incubated at 37° C. for 2 hours. After incubation, 3 mL of ethyl acetate was added to the resulting enzyme reaction product for extraction. The product was dried to prepare a sample for HPLC analysis. […]

A further assay concerns Lactococcus 20-92 strain. The assay is described as follows: Equol biosynthetic activity of bacterial cell from tetrahydrodaidzein (Example C1). Format: cell-based. The following applies: 10 μg/mL in medium; 37° C., 18 hours, anaerobic; HPLC (FIG. 20). As for the experimental part:
A Lactococcus 20-92 strain (FERM BP-10036) was inoculated in a tetrahydrodaidzein-containing amplification liquid medium (a modified GAM bouillon medium (NISSUI PHARMACEUTICAL CO., LTD.) to which cis- or trans-tetrahydrodaidzein (organically-synthesized by Otsuka Pharmaceutical Co., Ltd.: see Reference Example B1) was added in an amount of 10 μg/mL), and the culture was incubated at 37° C. for 18 hours under anaerobic conditions (using BBL Gas Pack systems). After incubation, 1 mL of the culture was immediately placed in a glass centrifuge tube with cap, and 3 mL of ethyl acetate was added thereto for extraction. The product was dried to prepare a sample for HPLC analysis. As the standard solution for HPLC analysis, a mixed solution of daidzein (2 μg/mL; Funakoshi Corporation), equol (2 μg/mL; Funakoshi Corporation), dihydrodaidzein (2 μg/mL; Trend Research Chemicals Inc.), cis-tetrahydrodaidzein and trans-tetrahydrodaidzein (2 μg/mL; both chemically-synthesized by Otsuka Pharmaceutical Co., Ltd.) was used.

The subject of assay [2] is dihydrodaidzein synthesis enzyme gene. The assay is described as follows: Induction of expression of dihydrodaidzein synthesis enzyme gene by daidzein, RT-PCR (Example A7). Type of assay: cell-based, Lactococcus 20-92 strain. The note with it: 10 mg/L daidzein in modified GAM broth, eight hours, 37° C., anaerobic; RT-PCR (FIG. 6). The procedure: Sealed Lactococcus 20-92 strain kept at 4° C. was incubated for eight hours in a modified GAM broth culture medium, that contains 10 mg/L daidzein (Funakoshi Co., Ltd.) or no daidzein, at 37° C. under an anaerobic condition. 25 mL of the culture solution was transferred to a 50 mL tube, and centrifuged for ten minutes at 3500 rpm, 4° C. The culture medium was removed by decantation and cells were collected. The collected cells were immediately frozen by liquid nitrogen. Then, the entire RNA was extracted and purified using 1 mL of TRIzol solution (Invitrogen) according to the instruction. The purified entire RNA was processed by DNase I (Invitrogen) to remove the genome DNA, and used for synthesis of first-strand cDNA.
From 2 μg of the entire RNA thus processed by DNaseI, the first-strand cDNA (reverse transcription) was synthesized using SuperScript® First-Strand Synthesis System for RT-PCR (Invitrogen). The synthesis of the first-strand cDNA was carried out using Random Hexamer mix as an extension primer according to the instruction. […] The final reaction liquid was used as a template for RT-PCR.
The dihydrodaidzein synthesis enzyme gene was amplified through RT-PCR using the four final reaction products as detailed in (2) of the present Example as templates. The expression amounts were compared with each other. […]

With `NC(=O)C1=CN([C@@H]2O[C@H](COP(=O)(O)OP(=O)(O)OC[C@H]3O[C@@H](n4cnc5c(N)ncnc54)[C@H](O)[C@@H]3O)[C@@H](O)[C@H]2O)C=CC1` [NADH], the “coenzyme dependency of the conversion of daidzein into dihydrodaidzein” value with daidzein was “dependent”. The “coenzyme dependency of the conversion of dihydrodaidzein into tetrahydrodaidzein” value with dihydrodaidzein is given as “dependent”.
On to `Oc1ccc(C2COc3cc(O)ccc3C2O)cc1` (stereo not drawn) [cis-tetrahydrodaidzein], for which the “production of equol from tetrahydrodaidzein by enzyme reaction” value in assay [1] is listed as “equol was produced”. Further, the “equol biosynthesis from tetrahydrodaidzein by bacterial culture” value in the assay on Lactococcus 20-92 strain is “activity to biosynthesize equol”.
For `O=c1c(-c2ccc(O)cc2)coc2cc(O)ccc12` [daidzein, 4′,7-dihydroxy isoflavone], in assay [2], the “expression of mRNA of dihydrodaidzein synthesis enzyme gene” value is given as “induced the expression of mRNA”.
